# Results published in patent US6525062B2, “Method of treating pain using nalbuphine and opioid antagonists” (The Regents of the University of California, priority 2000, dated 2003).
# Entries after “also recorded” stand apart in the source; their conditions may differ.
# Tests used:
# [1] = tested on: postoperative pain after removal of impacted third molars; conditions: co-administration of 0.4 mg naloxone, human patients, cited from earlier work
# [2] = tested on: postoperative pain after removal of impacted wisdom teeth; conditions: cited from earlier work
# [3] = tested on: postoperative pain after removal of third molar teeth
# Source text: This is a subjective measurement of pain, in which persons participating in the study are requested to indicate a level of pain at a certain time on a 10-cm line. The patient makes an indication on the line at a value from 0 to 10 indicating the level of pain felt at that time (where 0 indicates no pain and 10 indicates the worst pain imaginable to the patient). […] Tabulations were then made indicating increase or decrease in the pain level with time, with a negative value indicating a decrease in pain experienced by the patient and a positive value, an increase in such pain.
# In this clinical trial, 88 patients underwent standardized surgery by the same oral surgeon for removal of third molar (“wisdom”) teeth, including at least one bony impacted mandibular third molar. Prior to surgery, patients received intravenous diazepam, nitrous oxide, and a local anesthetic (mepivacaine without vasoconstrictor to obtain a nerve block of short duration). […]
# Baseline pain intensity was defined as the last VAS pain rating before administration of the test drug or drugs. VAS pain ratings were recorded at 20-minute intervals beginning ten minutes after administration of the test drug. The duration of the experiment, measured from the time of administration of the test drug, was three hours. […]
# [4] = tested on: postoperative pain after removal of third molar teeth; conditions: nalbuphine alone, data as reported in previous study; cited from earlier work
structure (smiles),measurement,setting,value
CC(C)=CCN1CCC2(C)c3cc(O)ccc3CC1C2C (centres unmarked) [pentazocine],effect of co-administered naloxone on analgesia produced by pentazocine,[1]; 60 mg pentazocine,potentiated
Oc1ccc2c3c1O[C@H]1[C@@H](O)CC[C@@]4(O)[C@@H](C2)N(CC2CCC2)CC[C@]314 [nalbuphine],effect on postoperative pain,"[2]; nalbuphine 5 mg alone, men",unexpectedly increased postoperative pain; also recorded: produced a marked increase in pain in men; also recorded: pain-enhancing effect; also recorded: had produced an increase in pain
same,pain modulation effect versus placebo,"[2]; nalbuphine 5 mg alone, women",did not produce pain modulation effects in women that were any better than those achieved by administration of a dose of placebo
same,sex difference of analgesic effects,[2]; women versus men,greater and more consistent in women than in men
same,"pain relief (VAS), initial period","[3]; women, nalbuphine 2.5 mg alone vs naloxone 0.4 mg vs combination, nalbuphine-alone data from previous study",slightly better pain relief in women than either naloxone at 0.4 mg or the combination
same,gender x treatment interaction (ANOVA),[4],significant gender x treatment interaction
CN1CC[C@]23c4c5ccc(O)c4O[C@H]2[C@@H](O)C=C[C@H]3[C@H]1C5 [morphine],effect of co-administered naloxone on analgesia produced by morphine,[1]; 8 mg morphine,attenuated
C=CCN1CC[C@]23c4c5ccc(O)c4O[C@H]2C(=O)CC[C@@]3(O)[C@H]1C5 [naloxone],gender differences in response (ANOVA),"[3]; Example 1, naloxone 0.4 mg alone or nalbuphine 5 mg + naloxone 0.4 mg, intravenous",lack of gender differences in response
